BindingDB's records for doi:10.1111/cbdd.12207 (Nirma University, 2014)

These compounds were tested against T1, Gag-Pol polyprotein [1148-1435] (Human immunodeficiency virus 1, UniProt P04585) (assay: HIV-1 Integrase Assay).
T1 construct: 1148-1435
Protocol: HIV-1 integrase inhibitory activity of compounds were determined using strand transferase inhibitory assay.
Work on `O=C(NCc1cc2ccccc2s1)c1nc(-c2cccs2)nc(O)c1O` [N-(1-benzothiophen-2-ylmethyl)-5,6-dihydroxy-2-(thiophen-2-yl)pyrimidine-4-carboxamide (Compound 12)] yielded an IC50 of 0.01 µM. In the case of `O=C(NNCc1ccccc1O)c1ccccc1O` [2-hydroxy-N'-[(2-hydroxyphenyl)methyl]benzohydrazide (Compound 4)], the IC50 is reported as 0.7 µM. `COc1cc2c(cc1OC)C(=O)N1CSCC1C(=O)S2` (centres undefined) [12,13-dimethoxy-5,9-dithia-3-azatricyclo[8.4.0.0 ,⁷]tetradeca-1(14),10,12-triene-2,8-dione (Compound 8)] was tested, and the IC50 was 331 µM. With `O=c1oc2ccccc2c(O)c1C1c2ccccc2Oc2c1c(=O)oc1ccccc21` (centres undefined) the IC50 was 122 µM. `O=C1/C(=C\c2cccc(O)c2)C=NN1C(=O)c1ccccc1O` [(4Z)-2-(2-hydroxybenzoyl)-4-[(3-hydroxyphenyl)methylidene]pyrazol-3-one (Compound 11)] was tested, and the IC50 was 7.4 µM. Work on `C=c1[nH]n(C(=O)c2ccc(Cl)cc2)c(=O)c1=Cc1ccc(O)cc1` yielded an IC50 of 293 µM. Work on `O=C1C(=O)c2ccccc2C(=O)C1=Cc1c(O)c(O)c2ccccc2c1O` [2-hydroxy-3-[(3-hydroxy-1,4-dioxonaphthalen-2-yl)methyl]naphthalene-1,4-dione (Compound 10)] yielded an IC50 of 20 µM. With `COC(=O)c1ccc2cc(CCc3ccc(O)c(O)c3)oc2c1` [methyl 2-[2-(3,4-dihydroxyphenyl)ethyl]-1-benzofuran-6-carboxylate (Compound 18)] the IC50 was 43.8 µM. With `Cn1c(=O)c(C(=O)O)c(O)c2cc(-c3ccc(F)cc3)ccc21` [6-(4-fluorophenyl)-4-hydroxy-1-methyl-2-oxoquinoline-3-carboxylic acid (Compound 6)] the IC50 was 23 µM. Compound `COC(=O)c1ccc(CC(=O)c2cc(C=O)c(O)cc2C)c(C)c1O` [methyl 4-[2-(5-formyl-4-hydroxy-2-methylphenyl)-2-oxoethyl]-2-hydroxy-3-methylbenzoate (Compound 5)] has an IC50 of 123 µM. `O=C(O)C(=O)CC(=O)c1cc(OCc2ccccc2)cc(OCc2ccccc2)c1` was tested, and the IC50 was 0.059 µM. `O=C(O)C(=O)CC(=O)c1c[nH]c2ccc(Cl)cc12` gave an IC50 of 0.52 µM. `Oc1ccccc1CNNCC(O)COc1ccccc1` (centres undefined) [2-{[2-(2-hydroxy-3-phenoxypropyl)hydrazin-1-yl]methyl}phenol (Compound 15)] showed an IC50 of 200 µM. Work on `O=C(NO)c1ccc2c(c1)CCN2Cc1ccc(F)cc1F` [1-[(2,4-difluorophenyl)methyl]-N-hydroxy-2,3-dihydroindole-5-carboxamide (Compound 1)] yielded an IC50 of 84 µM. `O=C(Nc1ncnc2c1ncn2Cc1ccc(F)cc1)c1ccc2cccnc2c1O` [N-{9-[(4-fluorophenyl)methyl]purin-6-yl}-8-hydroxyquinoline-7-carboxamide (Compound 20)] was tested, and the IC50 was 11.2 µM. `O=C1c2ccccc2C(C2CCCCC2)C(=O)N1O` (centres undefined) [4-cyclohexyl-2-hydroxy-4H-isoquinoline-1,3-dione (Compound 3)] showed an IC50 of 1.35 µM. `O=C(O)C(=O)CC(=O)c1cn(Cc2ccc(F)cc2)c2ccc(F)cc2c1=O` [(2Z)-4-{6-fluoro-1-[(4-fluorophenyl)methyl]-4-oxoquinolin-3-yl}-2-hydroxy-4-oxobut-2-enoic acid (Compound 9)] gave an IC50 of 2.3 µM. `O=C(NCc1ccc(Cl)c(Cl)c1)c1nc(-c2cccs2)nc(O)c1O` [N-[(3,4-dichlorophenyl)methyl]-5,6-dihydroxy-2-(thiophen-2-yl)pyrimidine-4-carboxamide (Compound 14)] showed an IC50 of 0.01 µM. With `O=C(NNC(=O)c1cccc(O)c1O)c1ccccc1O` [2,3-dihydroxy-N'-(2-hydroxybenzoyl)benzohydrazide (Compound 17)] the IC50 was 0.5 µM.
